Test results from the supplement of paper PMC10307832.

Tests used:
Test in all cases: relative viability (nuclei count vs DMSO), 5 days (fraction); higher = more cells survive
[1] = compound: c1ccc2c(CCNc3ccc(Nc4ccncc4)cc3)c[nH]c2c1 [Serdemetan] + CS(=O)(=O)CCNCc1ccc(-c2ccc3ncnc(Nc4ccc(OCc5cccc(F)c5)c(Cl)c4)c3c2)o1 [Lapatinib] (partner 2 µM)
Method in brief: (§1)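 Lung cancer cell lines were seeded in 1536-well plates and dosed by pin tool the next day, with either a single drug or a fixed anchor-drug dose combined with five library-drug doses (not always all listed) spaced in √10 steps. Five days later, one step fixed the cells and stained their nuclei (final 0.05% Triton X-100, 1% formaldehyde, 1 ug/ml Hoechst), and nuclei were counted on 4× images. Relative viability is the nuclei count in treated wells divided by the count in vehicle wells, and each value is the median of duplicate plates.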

[2] = compound: c1ccc2c(CCNc3ccc(Nc4ccncc4)cc3)c[nH]c2c1 [Serdemetan] + Nc1nc2[nH]cc(CCc3ccc(C(=O)N[C@@H](CCC(=O)O)C(=O)O)cc3)c2c(=O)[nH]1 [Pemetrexed] (partner 0.2 µM)
Method in brief: as §1

[3] = compound: C1CC(C2=C(C1)C3=C(N2)C=CC(=C3)Cl)C(=O)N [Selisistat] + COc1cc2c(Oc3ccc(NC(=O)C4(C(=O)Nc5ccc(F)cc5)CC4)cc3F)ccnc2cc1OCCCN1CCOCC1 [Foretinib] (partner 0.25 µM)
Method in brief: as §1

[4] = compound: c1ccc2c(CCNc3ccc(Nc4ccncc4)cc3)c[nH]c2c1 [Serdemetan] + COc1cccc2cc(-c3nc([C@H]4CC[C@H](C(=O)O)CC4)n4ncnc(N)c34)[nH]c12 [OSI-027] (partner 0.5 µM)
Method in brief: as §1

In the case of NCI-H661, the relative viability ([1]; first compound 0.04 µM) is reported as 0.474, the relative viability ([1]; first compound 0.1265 µM) is reported as 0.503 and the relative viability ([1]; first compound 0.4 µM) is reported as 0.572. The relative viability ([1]; first compound 1.265 µM) was 0.428, the relative viability ([1]; first compound 4 µM) was 0.438 and the relative viability ([2]; first compound 0.04 µM) was 0.968. The relative viability ([2]; first compound 0.1265 µM) was 0.902, the relative viability ([2]; first compound 0.4 µM) was 0.877 and the relative viability ([2]; first compound 1.265 µM) was 0.786. It also gave a relative viability ([2]; first compound 4 µM) of 0.806, a relative viability ([3]; first compound 0.4 µM) of 1.06 and a relative viability ([3]; first compound 1.265 µM) of 1.04. The relative viability ([3]; first compound 4 µM) was 0.977, the relative viability ([3]; first compound 12.65 µM) was 0.936 and the relative viability ([3]; first compound 40 µM) was 0.876. For the same cell line, the relative viability ([4]; first compound 0.04 µM) was 0.689, the relative viability ([4]; first compound 0.1265 µM) was 0.706 and the relative viability ([4]; first compound 0.4 µM) was 0.736. For the same cell line, the relative viability ([4]; first compound 1.265 µM) was 0.672 and the relative viability ([4]; first compound 4 µM) was 0.69.

Work on NCI-H838 yielded a relative viability ([1]; first compound 0.04 µM) of 0.9, a relative viability ([1]; first compound 0.1265 µM) of 0.986 and a relative viability ([1]; first compound 0.4 µM) of 0.9. For the same cell line, the relative viability ([1]; first compound 1.265 µM) was 0.86, the relative viability ([1]; first compound 4 µM) was 1.01 and the relative viability ([2]; first compound 0.04 µM) was 0.232. For the same cell line, the relative viability ([2]; first compound 0.1265 µM) was 0.263, the relative viability ([2]; first compound 0.4 µM) was 0.249 and the relative viability ([2]; first compound 1.265 µM) was 0.209. It also gave a relative viability ([2]; first compound 4 µM) of 0.235, a relative viability ([3]; first compound 0.4 µM) of 1.03 and a relative viability ([3]; first compound 1.265 µM) of 1.03. The relative viability ([3]; first compound 4 µM) was 0.957, the relative viability ([3]; first compound 12.65 µM) was 1.07 and the relative viability ([3]; first compound 40 µM) was 0.962. It also gave a relative viability ([4]; first compound 0.04 µM) of 0.434, a relative viability ([4]; first compound 0.1265 µM) of 0.416 and a relative viability ([4]; first compound 0.4 µM) of 0.461. For the same cell line, the relative viability ([4]; first compound 1.265 µM) was 0.387 and the relative viability ([4]; first compound 4 µM) was 0.463.

For NCI-H1355, the relative viability ([1]; first compound 0.04 µM) was 0.938, the relative viability ([1]; first compound 0.1265 µM) was 1.13 and the relative viability ([1]; first compound 0.4 µM) was 0.911. For the same cell line, the relative viability ([1]; first compound 1.265 µM) was 1.02, the relative viability ([1]; first compound 4 µM) was 0.973 and the relative viability ([2]; first compound 0.04 µM) was 1.07. It also gave a relative viability ([2]; first compound 0.1265 µM) of 1.02, a relative viability ([2]; first compound 0.4 µM) of 0.949 and a relative viability ([2]; first compound 1.265 µM) of 1.05. The relative viability ([2]; first compound 4 µM) was 0.954, the relative viability ([3]; first compound 0.4 µM) was 0.933 and the relative viability ([3]; first compound 1.265 µM) was 0.991. For the same cell line, the relative viability ([3]; first compound 4 µM) was 0.955, the relative viability ([3]; first compound 12.65 µM) was 0.99 and the relative viability ([3]; first compound 40 µM) was 0.993. The relative viability ([4]; first compound 0.04 µM) was 0.465, the relative viability ([4]; first compound 0.1265 µM) was 0.452 and the relative viability ([4]; first compound 0.4 µM) was 0.35. The relative viability ([4]; first compound 1.265 µM) was 0.35 and the relative viability ([4]; first compound 4 µM) was 0.382.

NCI-H1395 gave a relative viability ([1]; first compound 0.04 µM) of 1.04, a relative viability ([1]; first compound 0.1265 µM) of 1.07 and a relative viability ([1]; first compound 0.4 µM) of 1.34. For the same cell line, the relative viability ([1]; first compound 1.265 µM) was 0.932, the relative viability ([1]; first compound 4 µM) was 0.717 and the relative viability ([2]; first compound 0.04 µM) was 0.853. For the same cell line, the relative viability ([2]; first compound 0.1265 µM) was 0.925, the relative viability ([2]; first compound 0.4 µM) was 0.886 and the relative viability ([2]; first compound 1.265 µM) was 0.705. The relative viability ([2]; first compound 4 µM) was 0.518, the relative viability ([3]; first compound 0.4 µM) was 1.01 and the relative viability ([3]; first compound 1.265 µM) was 0.993. It also gave a relative viability ([3]; first compound 4 µM) of 0.909, a relative viability ([3]; first compound 12.65 µM) of 1.03 and a relative viability ([3]; first compound 40 µM) of 0.878. It also gave a relative viability ([4]; first compound 0.04 µM) of 0.526, a relative viability ([4]; first compound 0.1265 µM) of 0.637 and a relative viability ([4]; first compound 0.4 µM) of 0.734. It also gave a relative viability ([4]; first compound 1.265 µM) of 0.651 and a relative viability ([4]; first compound 4 µM) of 0.418.

Cell Line NCI-H1437 has a relative viability ([1]; first compound 0.04 µM) of 0.846, a relative viability ([1]; first compound 0.1265 µM) of 0.752 and a relative viability ([1]; first compound 0.4 µM) of 0.679. It also gave a relative viability ([1]; first compound 1.265 µM) of 0.76, a relative viability ([1]; first compound 4 µM) of 0.634 and a relative viability ([2]; first compound 0.04 µM) of 0.287. It also gave a relative viability ([2]; first compound 0.1265 µM) of 0.327, a relative viability ([2]; first compound 0.4 µM) of 0.316 and a relative viability ([2]; first compound 1.265 µM) of 0.264. The relative viability ([2]; first compound 4 µM) was 0.252, the relative viability ([3]; first compound 0.4 µM) was 1.29 and the relative viability ([3]; first compound 1.265 µM) was 1.21. For the same cell line, the relative viability ([3]; first compound 4 µM) was 1.33, the relative viability ([3]; first compound 12.65 µM) was 1.06 and the relative viability ([3]; first compound 40 µM) was 1. It also gave a relative viability ([4]; first compound 0.04 µM) of 0.872, a relative viability ([4]; first compound 0.1265 µM) of 0.865 and a relative viability ([4]; first compound 0.4 µM) of 0.868. It also gave a relative viability ([4]; first compound 1.265 µM) of 0.585 and a relative viability ([4]; first compound 4 µM) of 0.729.

NCI-H1563 gave a relative viability ([1]; first compound 0.04 µM) of 0.637, a relative viability ([1]; first compound 0.1265 µM) of 0.892 and a relative viability ([1]; first compound 0.4 µM) of 0.527. It also gave a relative viability ([1]; first compound 1.265 µM) of 0.799, a relative viability ([1]; first compound 4 µM) of 0.723 and a relative viability ([2]; first compound 0.04 µM) of 0.827. It also gave a relative viability ([2]; first compound 0.1265 µM) of 0.641, a relative viability ([2]; first compound 0.4 µM) of 0.627 and a relative viability ([2]; first compound 1.265 µM) of 0.393. For the same cell line, the relative viability ([2]; first compound 4 µM) was 0.602, the relative viability ([3]; first compound 0.4 µM) was 1.05 and the relative viability ([3]; first compound 1.265 µM) was 0.91. It also gave a relative viability ([3]; first compound 4 µM) of 0.941, a relative viability ([3]; first compound 12.65 µM) of 0.9 and a relative viability ([3]; first compound 40 µM) of 0.809. It also gave a relative viability ([4]; first compound 0.04 µM) of 0.747, a relative viability ([4]; first compound 0.1265 µM) of 0.74 and a relative viability ([4]; first compound 0.4 µM) of 0.732. It also gave a relative viability ([4]; first compound 1.265 µM) of 0.62 and a relative viability ([4]; first compound 4 µM) of 0.614.

NCI-H1650 gave a relative viability ([1]; first compound 0.04 µM) of 0.718, a relative viability ([1]; first compound 0.1265 µM) of 0.768 and a relative viability ([1]; first compound 0.4 µM) of 0.599. The relative viability ([1]; first compound 1.265 µM) was 0.846, the relative viability ([1]; first compound 4 µM) was 0.558 and the relative viability ([2]; first compound 0.04 µM) was 0.374. The relative viability ([2]; first compound 0.1265 µM) was 0.328, the relative viability ([2]; first compound 0.4 µM) was 0.371 and the relative viability ([2]; first compound 1.265 µM) was 0.343. For the same cell line, the relative viability ([2]; first compound 4 µM) was 0.264, the relative viability ([3]; first compound 0.4 µM) was 1.11 and the relative viability ([3]; first compound 1.265 µM) was 1.03. For the same cell line, the relative viability ([3]; first compound 4 µM) was 1.02, the relative viability ([3]; first compound 12.65 µM) was 0.999 and the relative viability ([3]; first compound 40 µM) was 1.18. The relative viability ([4]; first compound 0.04 µM) was 0.664, the relative viability ([4]; first compound 0.1265 µM) was 0.701 and the relative viability ([4]; first compound 0.4 µM) was 0.412. The relative viability ([4]; first compound 1.265 µM) was 0.532 and the relative viability ([4]; first compound 4 µM) was 0.473.

NCI-H1651 showed a relative viability ([1]; first compound 0.04 µM) of 0.575, a relative viability ([1]; first compound 0.1265 µM) of 0.65 and a relative viability ([1]; first compound 0.4 µM) of 0.49. It also gave a relative viability ([1]; first compound 1.265 µM) of 0.271, a relative viability ([1]; first compound 4 µM) of 0.275 and a relative viability ([2]; first compound 0.04 µM) of 0.582. The relative viability ([2]; first compound 0.1265 µM) was 0.388, the relative viability ([2]; first compound 0.4 µM) was 0.505 and the relative viability ([2]; first compound 1.265 µM) was 0.443. For the same cell line, the relative viability ([2]; first compound 4 µM) was 0.323, the relative viability ([3]; first compound 0.4 µM) was 0.785 and the relative viability ([3]; first compound 1.265 µM) was 0.693. It also gave a relative viability ([3]; first compound 4 µM) of 0.864, a relative viability ([3]; first compound 12.65 µM) of 0.897 and a relative viability ([3]; first compound 40 µM) of 0.739. For the same cell line, the relative viability ([4]; first compound 0.04 µM) was 0.627, the relative viability ([4]; first compound 0.1265 µM) was 0.571 and the relative viability ([4]; first compound 0.4 µM) was 0.777. For the same cell line, the relative viability ([4]; first compound 1.265 µM) was 0.369 and the relative viability ([4]; first compound 4 µM) was 0.313.
